From US9783524B2, “Protein tyrosine kinase modulators and methods of use” (BETTA PHARMACEUTICALS CO., LTD., priority 2013, dated 2017) come the findings set out here.

Holding throughout (assay type): biochemical, human
The subject of experiment [1] is EGFR (h).
Protocol: (§1) Assay conditions included 10 μM ATP and 100 nM test compounds.
(§2) All reactions are initiated by the addition of the MgATP mix. After incubation for 40 minutes at room temperature, the reaction is stopped by the addition of 3% phosphoric acid solution. 10 μL of the reaction is then spotted onto a P30 filtermat and washed three times for 5 minutes in 75 mM phosphoric acid and once in methanol prior to drying and scintillation counting. […] The experiment is carried out in duplicate. The value for the control sample (DMSO) was set to 100%, and the values for the compound-treated samples were expressed as activity relative to the control sample.
(§3) (specific activity approx. 500 cpm/pmol, concentration as required) and 0.1 μM test compound.
Experiment [2] relates to EGFR (L858R) (h).
Protocol: as §1, §2, §3
Experiment [3] relates to EGFR (T790M) (h).
Protocol: as §1
(§4) All reactions are initiated by the addition of the MgATP mix. After incubation for 40 minutes at room temperature, the reaction is stopped by the addition of 3% phosphoric acid solution. 10 μL of the reaction is then spotted onto a P30 filtermat and washed three times for 5 minutes in 75 mM phosphoric acid and once in methanol prior to drying and scintillation counting. This assay is performed by Millipore. The experiment is carried out in duplicate. The value for the control sample (DMSO) was set to 100%, and the values for the compound-treated samples were expressed as activity relative to the control sample.
Experiment [4] has as its system EGFR (T790M, L858R) (h).
Protocol: as §1, §2, §3
The test system of experiment [5] is ALK (h).
Protocol: as §1, §4
[6] abbreviates: 0.1 μM test compound, 10 μM ATP, remaining activity relative to DMSO control = 100%.

Where two headings read alike, the source gives them in different places.

On to `C=CC(=O)Nc1cccc(Nc2nc(Nc3ccc(N4CCN(C(C)=O)CC4)cc3OC)ncc2C(F)(F)F)c1` [CO-1686, reference compound], for which the “Activity (control) % EGFR (h)” value in experiment [1] came to 92%. Moreover, the “Activity (control) % EGFR (L858R) (h)” value in experiment [2] was determined as 97%. In experiment [3], the “Activity (control) % EGFR (T790M) (h)” value was 21%. The “Activity (control) % EGFR (T790M, L858R) (h)” value in experiment [4] was 7%.

In the case of `COc1cc(N2CCC(N(C)C)CC2)ccc1Nc1ncc(Cl)c(Nc2ccccc2C(=O)C(N)=O)n1` [Example 4, 2-(2-(5-chloro-2-(4-(4-(dimethylamino)piperidin-1-yl)-2-methoxyphenylamino)pyrimidin-4-ylamino)phenyl)-2-oxoacetamide], in experiment [5] (setting [6]), the “Activity (control) % ALK (h)” value is on record as 8%. Further, the “Activity (control) % EGFR (h)” value in experiment [1] turned out to be 65%. Further, the “Activity (control) % EGFR (L858R) (h)” value in experiment [2] amounted to 8%. Further, in experiment [3], the “Activity (control) % EGFR (T790M) (h)” value is listed as 4%. In addition, the “Activity (control) % EGFR (T790M, L858R) (h)” value in experiment [4] turned out to be 2%.

Take `C=CC(=O)Nc1cccc(Nc2ncc(Cl)c(Nc3ccccc3C(=O)C(=O)N(C)C)n2)c1` [Example 40, N-(3-(5-chloro-4-(2-(2-(dimethylamino)-2-oxoacetyl)phenylamino)pyrimidin-2-ylamino)phenyl)acrylamide]: the “Activity (control) % ALK (h)” value in experiment [5] (setting [6]) is recorded as 28%. The “Activity (control) % EGFR (T790M) (h)” value in experiment [3] (setting [6]) is listed as 79%. Moreover, the “Activity (control) % EGFR (T790M, L858R) (h)” value in experiment [4] (setting [6]) is on record as 24%.

For the compound `COc1cc(N2CCN(C(C)=O)CC2)ccc1Nc1ncc(Cl)c(Nc2ccccc2C(=O)C(=O)N(C)C)n1` [Example 53, 2-(2-(2-(4-(4-acetylpiperazin-1-yl)-2-methoxyphenylamino)-5-chloropyrimidin-4-ylamino)phenyl)-N,N-dimethyl-2-oxoacetamide], in experiment [2] (setting [6]), the “Activity (control) % EGFR (L858R) (h)” value is given as 60%. Moreover, the “Activity (control) % EGFR (T790M) (h)” value in experiment [3] (setting [6]) was determined as 21%. Besides, the “Activity (control) % EGFR (T790M, L858R) (h)” value in experiment [4] (setting [6]) amounted to 4%.

For `COc1cc(Nc2ncc(Cl)c(Nc3ccccc3C(=O)C(=O)N(C)C)n2)ccc1N1CCN(C)CC1` [Example 61, 2-(2-(5-chloro-2-(3-methoxy-4-(4-methylpiperazin-1-yl)phenylamino)pyrimidin-4-ylamino)phenyl)-N,N-dimethyl-2-oxoacetamide], the “Activity (control) % ALK (h)” value in experiment [5] is reported as 5%. Moreover, the “Activity (control) % EGFR (L858R) (h)” value in experiment [2] was determined as 70%. In addition, the “Activity (control) % EGFR (T790M) (h)” value in experiment [3] was determined as 54%. In addition, in experiment [4], the “Activity (control) % EGFR (T790M, L858R) (h)” value is 13%.

On to `C=CC(=O)Nc1cc(Nc2ncc(Cl)c(Nc3ccccc3C(=O)C(=O)NC)n2)ccc1OC` [Example 64, N-(5-(5-chloro-4-(2-(2-(methylamino)-2-oxoacetyl)phenylamino)pyrimidin-2-ylamino)-2-methoxyphenyl)acrylamide], for which the “Activity (control) % ALK (h)” value in experiment [5] (setting [6]) is 47%. Further, the “Activity (control) % EGFR (L858R) (h)” value in experiment [2] (setting [6]) turned out to be 100%. The “Activity (control) % EGFR (T790M) (h)” value in experiment [3] (setting [6]) was determined as 79%. Moreover, the “Activity (control) % EGFR (T790M, L858R) (h)” value in experiment [4] (setting [6]) was determined as 39%.

Turning to `COc1ccc(NC(=O)/C=C/CN2CCCCC2)cc1Nc1ncc(Cl)c(Nc2ccccc2C(=O)C(=O)N(C)C)n1` [Example 72, (E)-N-(3-(5-chloro-4-(2-(2-(dimethylamino)-2-oxoacetyl)phenylamino)pyrimidin-2-ylamino)-4-methoxyphenyl)-4-(piperidin-1-yl)but-2-enamide], in experiment [5] (setting [6]), the “Activity (control) % ALK (h)” value was determined as 14%. Moreover, the “Activity (control) % EGFR (L858R) (h)” value in experiment [2] (setting [6]) came out at 28%. For the same compound, in experiment [3] (setting [6]), the “Activity (control) % EGFR (T790M) (h)” value is 54%. For the same compound, the “Activity (control) % EGFR (T790M, L858R) (h)” value in experiment [4] (setting [6]) is recorded as 9%.

On to `COc1ccc(NC(=O)/C=C/CN(C)C)cc1Nc1ncc(Cl)c(Nc2ccccc2C(=O)C(=O)N(C)C)n1` [Example 80, (E)-N-(3-(5-chloro-4-(2-(2-(dimethylamino)-2-oxoacetyl)phenylamino)pyrimidin-2-ylamino)-4-methoxyphenyl)-4-(dimethylamino)but-2-enamide], for which the “Activity (control) % ALK (h)” value in experiment [5] (setting [6]) amounted to 10%. The “Activity (control) % EGFR (L858R) (h)” value in experiment [2] (setting [6]) is on record as 43%. For the same compound, in experiment [3] (setting [6]), the “Activity (control) % EGFR (T790M) (h)” value was determined as 42%. Further, in experiment [4] (setting [6]), the “Activity (control) % EGFR (T790M, L858R) (h)” value is 7%.

For the compound `C=CC(=O)N1CCOc2ccc(Nc3ncc(Cl)c(Nc4ccccc4C(=O)C(=O)N(C)C)n3)cc21` [Example 87, 2-(2-(2-(4-acryloyl-3,4-dihydro-2H-benzo[b][1,4]oxazin-6-ylamino)-5-chloropyrimidin-4-ylamino)phenyl)-N,N-dimethyl-2-oxoacetamide], the “Activity (control) % ALK (h)” value in experiment [5] was determined as 5%.

Turning to `C=CC(=O)Nc1cc(Nc2ncc(Cl)c(Nc3ccccc3C(=O)C(=O)N(C)C)n2)ccc1N1CCN(C)CC1` [Example 111, N-(5-(5-chloro-4-(2-(2-(dimethylamino)-2-oxoacetyl)phenylamino)pyrimidin-2-ylamino)-2-(4-methylpiperazin-1-yl)phenyl)acrylamide], the “Activity (control) % ALK (h)” value in experiment [5] (setting [6]) was 8%. Moreover, the “Activity (control) % EGFR (L858R) (h)” value in experiment [2] (setting [6]) worked out at 76%. The “Activity (control) % EGFR (T790M) (h)” value in experiment [3] (setting [6]) is recorded as 59%. Also, in experiment [4] (setting [6]), the “Activity (control) % EGFR (T790M, L858R) (h)” value is 11%.

As to `C=CC(=O)Nc1cc(Nc2ncc(Cl)c(Nc3ccccc3C(=O)C(=O)N(C)C)n2)ccc1OCCN(C)C` [Example 115, N-(5-(5-chloro-4-(2-(2-(dimethylamino)-2-oxoacetyl)phenylamino)pyrimidin-2-ylamino)-2-(2-(dimethylamino)ethoxy)phenyl)acrylamide], the “Activity (control) % ALK (h)” value in experiment [5] (setting [6]) was 6%.

With `COc1cc(Nc2ncc(Cl)c(Nc3ccccc3C(=O)C(=O)N(C)C)n2)ccc1N1CCOCC1` [Example 117, 2-(2-(5-chloro-2-(3-methoxy-4-morpholinophenylamino)pyrimidin-4-ylamino)phenyl)-N,N-dimethyl-2-oxoacetamide], the “Activity (control) % ALK (h)” value in experiment [5] (setting [6]) is 8%. For the same compound, the “Activity (control) % EGFR (L858R) (h)” value in experiment [2] (setting [6]) was found to be 88%. The “Activity (control) % EGFR (T790M) (h)” value in experiment [3] (setting [6]) turned out to be 65%. In addition, the “Activity (control) % EGFR (T790M, L858R) (h)” value in experiment [4] (setting [6]) is recorded as 14%.

As for `CCC(=O)Nc1cc(Nc2ncc(Cl)c(Nc3ccccc3C(=O)C(=O)N(C)C)n2)ccc1OCCN(C)C` [Example 120, N-(5-(5-chloro-4-(2-(2-(dimethylamino)-2-oxoacetyl)phenylamino)pyrimidin-2-ylamino)-2-(2-(dimethylamino)ethoxy)phenyl)propionamide], the “Activity (control) % ALK (h)” value in experiment [5] (setting [6]) was determined as 8%. Besides, in experiment [2] (setting [6]), the “Activity (control) % EGFR (L858R) (h)” value stood at 76%. For the same compound, in experiment [3] (setting [6]), the “Activity (control) % EGFR (T790M) (h)” value worked out at 62%. Moreover, in experiment [4] (setting [6]), the “Activity (control) % EGFR (T790M, L858R) (h)” value came out at 14%.

In the case of `CN(C)C(=O)C(=O)c1ccccc1Nc1nc(Nc2ccc(F)c(NC(=O)CCN3CCOCC3)c2)ncc1Cl` [Example 123, N-(5-(5-chloro-4-(2-(2-(dimethylamino)-2-oxoacetyl)phenylamino)pyrimidin-2-ylamino)-2-fluorophenyl)-3-morpholinopropanamide], the “Activity (control) % ALK (h)” value in experiment [5] (setting [6]) is 17%. Besides, the “Activity (control) % EGFR (L858R) (h)” value in experiment [2] (setting [6]) came to 94%. Also, the “Activity (control) % EGFR (T790M) (h)” value in experiment [3] (setting [6]) came to 84%. Moreover, the “Activity (control) % EGFR (T790M, L858R) (h)” value in experiment [4] (setting [6]) amounted to 31%.

With `C=C(CN(C)CCN(C)C)C(=O)Nc1cccc(Nc2ncc(Cl)c(Nc3ccccc3C(=O)C(=O)N(C)C)n2)c1` [Example 125, N-(3-(5-chloro-4-(2-(2-(dimethylamino)-2-oxoacetyl)phenylamino)pyrimidin-2-ylamino)phenyl)-2-(((2-(dimethylamino)ethyl)(methyl)amino)methyl)acrylamide], the “Activity (control) % ALK (h)” value in experiment [5] (setting [6]) was 20%. The “Activity (control) % EGFR (L858R) (h)” value in experiment [2] (setting [6]) is listed as 54%. Moreover, the “Activity (control) % EGFR (T790M) (h)” value in experiment [3] (setting [6]) stood at 18%. Besides, the “Activity (control) % EGFR (T790M, L858R) (h)” value in experiment [4] (setting [6]) amounted to 2%.

For the compound `C=C(CN1CCCCC1)C(=O)Nc1cc(Nc2ncc(Cl)c(Nc3ccccc3C(=O)C(=O)N(C)C)n2)ccc1N1CCOCC1` [Example 129, N-(5-(5-chloro-4-(2-(2-(dimethylamino)-2-oxoacetyl)phenylamino)pyrimidin-2-ylamino)-2-morpholinophenyl)-2-(piperidin-1-ylmethyl)acrylamide], the “Activity (control) % ALK (h)” value in experiment [5] (setting [6]) came to 8%. The “Activity (control) % EGFR (L858R) (h)” value in experiment [2] (setting [6]) amounted to 75%. Moreover, the “Activity (control) % EGFR (T790M) (h)” value in experiment [3] (setting [6]) is reported as 24%. In addition, the “Activity (control) % EGFR (T790M, L858R) (h)” value in experiment [4] (setting [6]) is reported as 3%.

`CCN(CC)C(=O)C(=O)c1ccccc1Nc1nc(Nc2ccc(N3CCN(C)CC3)c(OC)c2)ncc1Cl` [Example 130, 2-(2-(5-chloro-2-(3-methoxy-4-(4-methylpiperazin-1-yl)phenylamino)pyrimidin-4-ylamino)phenyl)-N,N-diethyl-2-oxoacetamide]: the “Activity (control) % ALK (h)” value in experiment [5] (setting [6]) is listed as 13%. Besides, in experiment [2] (setting [6]), the “Activity (control) % EGFR (L858R) (h)” value came out at 98%. For the same compound, the “Activity (control) % EGFR (T790M) (h)” value in experiment [3] (setting [6]) stood at 84%. Further, the “Activity (control) % EGFR (T790M, L858R) (h)” value in experiment [4] (setting [6]) was 22%.

Turning to `C=CC(=O)Nc1ccc(OC)c(Nc2ncc(Cl)c(Nc3ccccc3C(=O)C(=O)N(CC)CC)n2)c1` [Example 131, N-(3-(5-chloro-4-(2-(2-(diethylamino)-2-oxoacetyl)phenylamino)pyrimidin-2-ylamino)-4-methoxyphenyl)acrylamide], the “Activity (control) % ALK (h)” value in experiment [5] (setting [6]) is 9%. Further, the “Activity (control) % EGFR (T790M) (h)” value in experiment [3] (setting [6]) is recorded as 82%. The “Activity (control) % EGFR (T790M, L858R) (h)” value in experiment [4] (setting [6]) is reported as 27%.

Regarding `C=CC(=O)Nc1cc(Nc2ncc(Cl)c(Nc3ccccc3C(=O)C(=O)N(CC)CC)n2)ccc1OC` [Example 132, N-(5-(5-chloro-4-(2-(2-(diethylamino)-2-oxoacetyl)phenylamino)pyrimidin-2-ylamino)-2-methoxyphenyl)acrylamide], the “Activity (control) % ALK (h)” value in experiment [5] (setting [6]) was found to be 16%. The “Activity (control) % EGFR (T790M) (h)” value in experiment [3] (setting [6]) was 77%. Besides, the “Activity (control) % EGFR (T790M, L858R) (h)” value in experiment [4] (setting [6]) came to 30%.

In the case of `C=CC(=O)Nc1ccc(N2CCN(C)CC2)c(Nc2ncc(Cl)c(Nc3ccccc3C(=O)C(=O)N(C)C)n2)c1` [Example 135, N-(3-(5-chloro-4-(2-(2-(dimethylamino)-2-oxoacetyl)phenylamino)pyrimidin-2-ylamino)-4-(4-methylpiperazin-1-yl)phenyl)acrylamide], the “Activity (control) % ALK (h)” value in experiment [5] (setting [6]) came out at 80%. Further, in experiment [3] (setting [6]), the “Activity (control) % EGFR (T790M) (h)” value was 96%. Besides, the “Activity (control) % EGFR (T790M, L858R) (h)” value in experiment [4] (setting [6]) was found to be 95%.
